# Results from ChEMBL document CHEMBL1201862, “PubChem BioAssay data set” (2004).
# Active and inactive are the calls of the source.
# Tests used:
# Exodeoxyribonuclease V = Exodeoxyribonuclease V (Escherichia coli (strain K12), UniProt P04993+P07648+P08394); assay: E. coli RecBCD inhibitors, dose response, counter-screen for AddAB inhibitor project, absorbance, V66 E. coli, mutant T4 phage (AID 492957); assay type: functional, cell-based, Escherichia coli str. K-12 substr. MG1655
# [1] = Counterscreen for AddAB inhibitors: absorbance-based bacterial cell-based high throughput dose response assay for inhibitors of bacterial viability. [Related pubchem assays (depositor defined):AID435030, AID449728, AID449731, AID488942, AID488955, AID488956]; assay type: functional
# Bcl-2-related protein A1 = Bcl-2-related protein A1 (Mus musculus, UniProt Q07440); assay type: functional;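 note: confirmatory dose–response counterscreen on Bfl-1, used to check hits from a UBC13 polyubiquitin inhibitor campaign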
# [2] = target: T1, Ubiquitin-conjugating enzyme E2 N (Homo sapiens, UniProt P61088); assay type: functional
# T1 sequence (P61088 whole entry): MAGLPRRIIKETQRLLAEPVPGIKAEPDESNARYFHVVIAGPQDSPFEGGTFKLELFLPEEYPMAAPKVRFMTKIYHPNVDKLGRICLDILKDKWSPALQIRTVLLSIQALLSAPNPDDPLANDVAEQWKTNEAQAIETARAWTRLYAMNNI
# [3] = target: T2, DNA repair protein RAD52 homolog (Homo sapiens, UniProt P43351); assay type: functional, biochemical
# T2 sequence (P43351 whole entry): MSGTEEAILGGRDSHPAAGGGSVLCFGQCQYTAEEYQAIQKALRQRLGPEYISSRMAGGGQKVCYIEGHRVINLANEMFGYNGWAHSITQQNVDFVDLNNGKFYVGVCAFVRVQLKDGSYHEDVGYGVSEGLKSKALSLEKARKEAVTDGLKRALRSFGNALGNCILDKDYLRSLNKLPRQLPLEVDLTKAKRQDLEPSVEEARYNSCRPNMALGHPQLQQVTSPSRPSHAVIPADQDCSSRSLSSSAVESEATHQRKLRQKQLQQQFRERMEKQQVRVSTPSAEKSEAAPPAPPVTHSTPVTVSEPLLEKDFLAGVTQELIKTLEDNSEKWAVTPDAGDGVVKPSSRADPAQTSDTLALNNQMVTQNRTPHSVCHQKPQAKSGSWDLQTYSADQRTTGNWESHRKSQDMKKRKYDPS
# [4] = Luminescence Cell-Based Dose Retest to Confirm Inhibitors of Cancer Stem Cells. [Related pubchem assays (depositor defined):AID2717, AID2721]; assay type: functional, Homo sapiens; settings: Homo sapiens
# [5] = cytotoxicity in HMLE control line with eGFP shRNA, dose response, counter-screen for HMLE_sh_ECad selective toxicity project, cell-based, HMLE_sh_eGFP, luminescence (AID 463074); assay type: functional, Homo sapiens;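 note: HMLE human mammary epithelial cells expressing control shRNA against eGFP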
# INS1 = assay: beta cell apoptosis inhibitors, cytokine rescue, dose response, luminescence, retest (AID 449756); assay type: functional, cell-based; settings: Rattus norvegicus;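 note: cell death triggered by IL-1 beta plus TNF-alpha plus IFN-gamma mixture; protective hits raise ATP signal compared with cytokine alone wells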
# [6] = target: Fructose-bisphosphate aldolase (Mycobacterium tuberculosis, UniProt P9WQA3); assay: Fluorescence-based biochemical high throughput dose response assay for inhibitors of the fructose-bisphosphate aldolase (FBA) of M. tuberculosis.; assay type: functional
# Escherichia coli [7] = assay: microbe, parasite or virus in culture
# [8] = target: T1, Ubiquitin-conjugating enzyme E2 N; assay type: functional; remark: listed apart in the source
# [9] = human group III sPLA2 inhibitors, dose response, biochemical, QFRET, IC50 (AID 743457);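 note: green fluorescence rise as the enzyme cleaves BODIPY PC-A2 in liposomes; potency for inhibition of the enzyme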
# Nonstructural protein 1 = Nonstructural protein 1 (Influenza A virus, UniProt Q194T2); assay type: functional, Influenza A virus (A/California/07/2009(H1N1))
# [10] = target: T3, Rac GTPase-activating protein 1 (Homo sapiens, UniProt Q9H0H5); assay: MgcRacGAP GTPase-activating activity inhibitors, confirmation, biochemical, ADP Hunter fluorescence, primary and confirmatory (AID 624330); assay type: functional
# T3 sequence (Q9H0H5 whole entry): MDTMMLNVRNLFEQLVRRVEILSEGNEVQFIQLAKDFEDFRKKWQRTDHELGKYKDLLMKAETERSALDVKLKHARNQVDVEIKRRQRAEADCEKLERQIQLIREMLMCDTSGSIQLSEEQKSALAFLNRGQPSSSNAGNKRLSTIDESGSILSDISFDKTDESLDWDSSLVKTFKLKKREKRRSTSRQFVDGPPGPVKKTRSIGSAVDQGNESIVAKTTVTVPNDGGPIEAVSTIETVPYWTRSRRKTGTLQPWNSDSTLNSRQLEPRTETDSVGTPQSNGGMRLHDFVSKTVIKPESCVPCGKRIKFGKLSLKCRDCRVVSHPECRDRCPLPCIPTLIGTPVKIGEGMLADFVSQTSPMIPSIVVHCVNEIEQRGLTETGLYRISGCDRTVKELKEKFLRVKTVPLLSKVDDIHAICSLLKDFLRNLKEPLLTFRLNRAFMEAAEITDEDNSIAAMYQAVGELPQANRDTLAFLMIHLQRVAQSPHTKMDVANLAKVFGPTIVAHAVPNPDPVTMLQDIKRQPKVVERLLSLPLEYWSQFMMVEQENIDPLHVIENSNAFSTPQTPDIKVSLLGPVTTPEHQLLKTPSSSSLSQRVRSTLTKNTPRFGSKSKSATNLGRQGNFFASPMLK
# [11] = AlphaScreen signal interference compounds, dose response, artefact control for ARNT-TACC3 interaction inhibitor project, biochemical, luminescence, cherry-pick (AID 651705); assay type: functional;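 note: AlphaScreen bead proximity signal that flags compounds interfering with the detection technology; potency reflects signal decrease which marks the compound as an assay artifact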
# [12] = growth suppression of PTEN-null colon cells, dose response, cell-based, HCT116 PTEN knockout (AID 1047); assay type: functional;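 note: HCT116 colon tumor cells with PTEN knocked out; cells exposed to compound for 60 hours before readout; potency for loss of cell viability measured by luminescence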
# [13] = growth suppression of beta-catenin-knockout colon cells, dose response, cell-based, HCT116, human colon tumor (AID 1045); assay type: functional;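 note: HCT116 colon tumor cells with beta catenin knocked out; cells exposed to compound for 60 hours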
# Vero [14] = assay: cells; assay type: functional, cell-based; settings: Chlorocebus sabaeus
# Vero [15] = assay: cells; assay type: functional; settings: Chlorocebus sabaeus
# [16] = target: T4, Kappa-type opioid receptor (Homo sapiens, UniProt P41145); assay: KOR agonist analogs, arrestin-GFP redistribution, SAR follow-up, imaging, image-based, set 3 (AID 488833); assay type: functional
# Mu-type opioid receptor = Mu-type opioid receptor (Homo sapiens, UniProt P35372); assay: SAR Analysis of Agonists of the MOR Receptor using an Image-Based Assay - Set 3. [Related pubchem assays (depositor defined):AID1777, AID1785, AID1786, AID1966, AID2133, AID2136, AID2284, AID2285, AID2352]; assay type: functional
# [17] = target: Delta-type opioid receptor (Homo sapiens, UniProt P41143); assay: SAR Analysis of Agonists of the DOR Receptor using an Image-Based Assay - Set 3. [Related pubchem assays (depositor defined):AID1777, AID1786]; assay type: functional
# [18] = target: T4, Kappa-type opioid receptor; assay: SAR analysis of small molecule agonists of the kappa opioid receptor via a luminescent beta-arrestin assay - Set 3. [Related pubchem assays (depositor defined):AID1777, AID1785, AID1786, AID1966, AID2133, AID2136, AID2284, AID2500]; assay type: functional
# [19] = target: Peroxisome proliferator-activated receptor gamma/Nuclear receptor coactivator 1 (Homo sapiens, UniProt P37231); assay: TR-FRET dose response biochemical High Throughput Screening assay for agonists of the steroid receptor coactivator 1 (SRC-1) recruitment by the peroxisome proliferator-activated receptor gamma (PPAR gamma): non-selective agonists. [Related pubchem assays (depositor defined):AID1300, AID1808, AID504735, AID631]; assay type: protein assay
# [20] = target: Peroxisome proliferator-activated receptor gamma/Nuclear receptor coactivator 3 (Homo sapiens, UniProt P37231); assay: TR-FRET dose response biochemical High Throughput Screening assay for agonists of the steroid receptor coactivator 3 (SRC-3) recruitment by the peroxisome proliferator-activated receptor gamma (PPAR gamma): non-selective agonists. [Related pubchem assays: 1301 (Confirmation screen.), 1048 (Primary screen.)]; assay type: functional
# [21] = target: Peroxisome proliferator-activated receptor gamma/Nuclear receptor coactivator 2 (Homo sapiens, UniProt P37231); assay: TR-FRET dose response biochemical High Throughput Screening assay for agonists of the steroid receptor coactivator 2 (SRC-2) recruitment by the peroxisome proliferator-activated receptor gamma (PPAR gamma): non-selective agonists. [Related pubchem assays: 1297, 1032 ]; assay type: functional
# Escherichia coli [22] = assay: microbe, parasite or virus in culture; remark: listed apart in the source
# [23] = target: T5, Tyrosine-protein phosphatase non-receptor type 7 (Homo sapiens, UniProt P35236); assay type: functional
# T5 sequence (P35236 whole entry): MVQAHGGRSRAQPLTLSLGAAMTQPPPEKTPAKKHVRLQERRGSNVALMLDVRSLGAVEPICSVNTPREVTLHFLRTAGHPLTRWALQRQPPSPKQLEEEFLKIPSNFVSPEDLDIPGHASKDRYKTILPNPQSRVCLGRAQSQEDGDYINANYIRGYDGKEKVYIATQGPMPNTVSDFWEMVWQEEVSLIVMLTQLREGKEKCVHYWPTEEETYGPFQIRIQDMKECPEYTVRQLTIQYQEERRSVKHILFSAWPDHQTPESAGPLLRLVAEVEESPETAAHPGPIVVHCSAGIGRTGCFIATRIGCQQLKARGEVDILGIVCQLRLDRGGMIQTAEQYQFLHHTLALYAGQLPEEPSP
# [24] = target: T6, Tyrosine-protein phosphatase non-receptor type 22 (Homo sapiens, UniProt Q9Y2R2); assay type: functional
# T6 sequence (Q9Y2R2 whole entry): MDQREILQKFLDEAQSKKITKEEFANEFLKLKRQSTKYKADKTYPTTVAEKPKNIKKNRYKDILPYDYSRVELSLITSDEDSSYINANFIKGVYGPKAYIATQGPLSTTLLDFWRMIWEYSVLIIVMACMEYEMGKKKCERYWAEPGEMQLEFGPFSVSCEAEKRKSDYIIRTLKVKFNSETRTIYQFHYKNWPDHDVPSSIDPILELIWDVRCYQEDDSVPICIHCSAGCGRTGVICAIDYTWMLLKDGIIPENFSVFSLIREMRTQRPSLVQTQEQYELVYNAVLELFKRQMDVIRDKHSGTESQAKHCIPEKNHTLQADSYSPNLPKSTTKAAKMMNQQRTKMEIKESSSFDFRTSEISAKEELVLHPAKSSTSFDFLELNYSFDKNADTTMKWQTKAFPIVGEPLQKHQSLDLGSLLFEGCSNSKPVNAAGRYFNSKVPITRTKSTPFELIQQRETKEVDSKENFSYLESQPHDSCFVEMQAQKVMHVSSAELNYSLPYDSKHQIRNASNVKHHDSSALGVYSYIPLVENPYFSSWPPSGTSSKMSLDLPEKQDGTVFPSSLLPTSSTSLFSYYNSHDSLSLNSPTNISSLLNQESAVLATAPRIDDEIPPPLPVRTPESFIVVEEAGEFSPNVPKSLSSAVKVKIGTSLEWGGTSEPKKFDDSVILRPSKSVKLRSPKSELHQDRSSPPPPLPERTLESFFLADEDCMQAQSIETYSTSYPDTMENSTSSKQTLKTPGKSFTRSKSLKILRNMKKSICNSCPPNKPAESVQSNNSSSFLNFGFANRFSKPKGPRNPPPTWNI
# [25] = target: T6, Tyrosine-protein phosphatase non-receptor type 22; assay type: functional; remark: listed apart in the source
# [26] = P. falciparum late gametocyte killing, dose response, luminescence (AID 1117278); assay type: functional, cell-based;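 note: gametocytes exposed to compound for 24 hours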
# [27] = Jurkat T cell cytotoxicity, dose response, cytotoxicity control for P. falciparum gametocyte viability project, luminescence (AID 1117277); assay type: functional, cell-based;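 note: potency reflects loss of cellular ATP meaning fewer viable cells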
# T4 sequence (P41145 whole entry): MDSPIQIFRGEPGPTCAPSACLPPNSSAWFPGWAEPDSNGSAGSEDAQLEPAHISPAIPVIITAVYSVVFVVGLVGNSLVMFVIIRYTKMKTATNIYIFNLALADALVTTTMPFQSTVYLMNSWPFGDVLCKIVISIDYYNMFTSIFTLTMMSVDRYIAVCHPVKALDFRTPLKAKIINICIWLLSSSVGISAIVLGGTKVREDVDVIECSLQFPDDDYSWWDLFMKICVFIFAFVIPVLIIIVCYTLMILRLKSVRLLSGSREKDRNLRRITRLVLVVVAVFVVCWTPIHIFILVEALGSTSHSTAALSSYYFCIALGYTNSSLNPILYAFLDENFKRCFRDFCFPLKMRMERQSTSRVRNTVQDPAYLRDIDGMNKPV
# Sequence of Bcl-2-related protein A1 (Q07440 whole entry): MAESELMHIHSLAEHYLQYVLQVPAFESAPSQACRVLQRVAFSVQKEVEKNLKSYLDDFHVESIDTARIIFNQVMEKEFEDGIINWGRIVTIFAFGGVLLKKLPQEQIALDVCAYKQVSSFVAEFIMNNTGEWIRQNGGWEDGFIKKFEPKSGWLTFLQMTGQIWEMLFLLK
# Sequence of Exodeoxyribonuclease V (P04993 whole entry): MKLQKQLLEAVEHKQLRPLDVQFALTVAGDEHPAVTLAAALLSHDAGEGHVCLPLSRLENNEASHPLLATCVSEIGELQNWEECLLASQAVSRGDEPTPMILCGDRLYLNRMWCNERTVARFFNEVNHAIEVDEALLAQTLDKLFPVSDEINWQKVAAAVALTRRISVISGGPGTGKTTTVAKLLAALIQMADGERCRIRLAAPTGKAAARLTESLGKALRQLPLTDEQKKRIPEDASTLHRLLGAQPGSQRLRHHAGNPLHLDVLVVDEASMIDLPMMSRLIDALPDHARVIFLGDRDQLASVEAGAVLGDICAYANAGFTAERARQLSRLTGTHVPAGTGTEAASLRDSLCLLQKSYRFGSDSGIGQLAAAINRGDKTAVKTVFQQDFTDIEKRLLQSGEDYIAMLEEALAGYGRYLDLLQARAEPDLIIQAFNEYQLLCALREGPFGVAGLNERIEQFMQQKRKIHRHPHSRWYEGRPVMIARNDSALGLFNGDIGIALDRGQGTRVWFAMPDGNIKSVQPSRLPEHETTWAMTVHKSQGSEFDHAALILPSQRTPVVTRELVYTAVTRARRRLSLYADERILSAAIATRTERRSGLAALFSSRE
# Sequence of Exodeoxyribonuclease V (P07648 whole entry): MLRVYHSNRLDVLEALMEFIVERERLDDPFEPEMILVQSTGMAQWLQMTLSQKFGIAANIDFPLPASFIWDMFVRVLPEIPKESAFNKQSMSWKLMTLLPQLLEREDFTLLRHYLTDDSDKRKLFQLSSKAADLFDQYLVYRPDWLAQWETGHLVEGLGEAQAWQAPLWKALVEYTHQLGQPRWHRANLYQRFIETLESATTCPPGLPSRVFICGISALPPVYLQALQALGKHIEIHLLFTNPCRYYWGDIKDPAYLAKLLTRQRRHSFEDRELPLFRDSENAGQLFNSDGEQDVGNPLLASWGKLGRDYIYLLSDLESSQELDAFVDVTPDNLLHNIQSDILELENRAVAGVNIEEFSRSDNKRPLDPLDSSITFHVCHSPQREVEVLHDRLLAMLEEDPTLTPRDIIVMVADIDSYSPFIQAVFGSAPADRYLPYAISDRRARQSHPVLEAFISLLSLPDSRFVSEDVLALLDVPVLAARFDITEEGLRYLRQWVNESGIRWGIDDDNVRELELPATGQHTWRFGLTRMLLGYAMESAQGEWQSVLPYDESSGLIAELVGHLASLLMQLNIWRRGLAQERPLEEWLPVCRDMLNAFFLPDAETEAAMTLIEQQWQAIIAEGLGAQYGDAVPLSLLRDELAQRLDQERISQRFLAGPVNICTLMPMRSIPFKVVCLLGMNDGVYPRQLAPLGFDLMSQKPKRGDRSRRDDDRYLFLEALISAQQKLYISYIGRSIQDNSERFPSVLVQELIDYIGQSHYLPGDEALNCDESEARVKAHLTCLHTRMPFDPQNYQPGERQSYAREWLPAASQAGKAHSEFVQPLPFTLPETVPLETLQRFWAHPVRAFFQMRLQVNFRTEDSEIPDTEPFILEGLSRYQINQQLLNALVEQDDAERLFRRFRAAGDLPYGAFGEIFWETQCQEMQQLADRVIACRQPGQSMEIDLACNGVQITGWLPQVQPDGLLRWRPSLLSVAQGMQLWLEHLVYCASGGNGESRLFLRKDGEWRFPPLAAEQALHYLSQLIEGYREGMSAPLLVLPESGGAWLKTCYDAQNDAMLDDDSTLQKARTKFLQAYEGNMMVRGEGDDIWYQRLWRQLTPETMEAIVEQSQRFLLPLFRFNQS
# Sequence of Exodeoxyribonuclease V (P08394 whole entry): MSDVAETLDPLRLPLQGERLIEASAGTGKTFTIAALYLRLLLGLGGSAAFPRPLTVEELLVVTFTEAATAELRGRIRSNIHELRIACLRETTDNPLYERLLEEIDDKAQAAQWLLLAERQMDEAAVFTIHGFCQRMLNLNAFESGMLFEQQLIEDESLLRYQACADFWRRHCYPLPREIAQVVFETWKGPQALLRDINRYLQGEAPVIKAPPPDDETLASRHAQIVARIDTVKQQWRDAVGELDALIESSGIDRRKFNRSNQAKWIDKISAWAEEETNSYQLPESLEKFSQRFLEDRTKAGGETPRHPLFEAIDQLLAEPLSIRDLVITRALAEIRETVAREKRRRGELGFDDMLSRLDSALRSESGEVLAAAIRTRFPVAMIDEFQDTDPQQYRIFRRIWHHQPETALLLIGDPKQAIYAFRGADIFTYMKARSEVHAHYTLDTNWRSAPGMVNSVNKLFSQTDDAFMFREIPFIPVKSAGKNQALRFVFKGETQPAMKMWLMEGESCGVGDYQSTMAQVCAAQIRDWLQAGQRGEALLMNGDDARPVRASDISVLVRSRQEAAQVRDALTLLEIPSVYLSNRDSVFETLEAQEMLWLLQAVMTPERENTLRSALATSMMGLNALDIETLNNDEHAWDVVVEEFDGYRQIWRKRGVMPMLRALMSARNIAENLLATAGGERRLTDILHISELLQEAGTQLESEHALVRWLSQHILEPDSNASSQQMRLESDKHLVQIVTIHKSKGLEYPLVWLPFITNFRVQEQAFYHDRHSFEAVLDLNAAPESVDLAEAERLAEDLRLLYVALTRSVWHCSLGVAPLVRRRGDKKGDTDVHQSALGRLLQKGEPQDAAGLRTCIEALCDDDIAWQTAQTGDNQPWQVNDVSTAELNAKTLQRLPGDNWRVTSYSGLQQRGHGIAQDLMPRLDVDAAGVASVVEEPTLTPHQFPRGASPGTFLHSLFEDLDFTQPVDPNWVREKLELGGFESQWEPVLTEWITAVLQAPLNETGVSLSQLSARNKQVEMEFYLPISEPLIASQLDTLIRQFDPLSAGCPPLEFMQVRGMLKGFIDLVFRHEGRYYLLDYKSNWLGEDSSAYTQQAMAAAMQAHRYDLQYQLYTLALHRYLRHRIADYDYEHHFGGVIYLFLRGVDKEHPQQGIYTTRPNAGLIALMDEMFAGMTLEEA
# Sequence of Mu-type opioid receptor (P35372 whole entry): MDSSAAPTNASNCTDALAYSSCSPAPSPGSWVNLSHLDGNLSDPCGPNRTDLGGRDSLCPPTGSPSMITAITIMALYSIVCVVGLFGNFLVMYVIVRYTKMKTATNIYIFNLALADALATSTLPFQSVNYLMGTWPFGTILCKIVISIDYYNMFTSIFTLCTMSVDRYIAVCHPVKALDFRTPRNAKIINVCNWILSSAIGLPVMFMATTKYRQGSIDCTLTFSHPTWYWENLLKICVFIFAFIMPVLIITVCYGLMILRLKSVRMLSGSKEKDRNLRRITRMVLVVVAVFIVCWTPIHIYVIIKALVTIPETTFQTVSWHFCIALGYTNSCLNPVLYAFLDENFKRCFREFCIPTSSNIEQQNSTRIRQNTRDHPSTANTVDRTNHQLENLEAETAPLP
# Sequence of Nonstructural protein 1 (Q194T2 whole entry): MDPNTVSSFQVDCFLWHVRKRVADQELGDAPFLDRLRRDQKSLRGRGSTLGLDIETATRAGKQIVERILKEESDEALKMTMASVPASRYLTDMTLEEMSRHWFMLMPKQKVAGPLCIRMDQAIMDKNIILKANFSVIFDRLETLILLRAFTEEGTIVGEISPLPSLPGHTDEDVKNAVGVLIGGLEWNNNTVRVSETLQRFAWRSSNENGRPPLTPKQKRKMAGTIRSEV
# Sequence of Fructose-bisphosphate aldolase (P9WQA3 whole entry): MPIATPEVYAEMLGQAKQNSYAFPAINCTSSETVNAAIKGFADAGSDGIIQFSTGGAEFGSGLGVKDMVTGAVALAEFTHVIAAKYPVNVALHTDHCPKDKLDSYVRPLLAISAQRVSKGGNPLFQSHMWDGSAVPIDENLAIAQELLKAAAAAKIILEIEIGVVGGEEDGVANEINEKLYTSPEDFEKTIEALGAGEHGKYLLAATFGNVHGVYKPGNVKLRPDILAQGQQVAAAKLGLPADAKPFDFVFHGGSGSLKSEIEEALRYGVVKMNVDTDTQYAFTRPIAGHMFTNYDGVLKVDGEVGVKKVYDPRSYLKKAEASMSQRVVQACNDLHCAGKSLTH
# Sequence of Delta-type opioid receptor (P41143 whole entry): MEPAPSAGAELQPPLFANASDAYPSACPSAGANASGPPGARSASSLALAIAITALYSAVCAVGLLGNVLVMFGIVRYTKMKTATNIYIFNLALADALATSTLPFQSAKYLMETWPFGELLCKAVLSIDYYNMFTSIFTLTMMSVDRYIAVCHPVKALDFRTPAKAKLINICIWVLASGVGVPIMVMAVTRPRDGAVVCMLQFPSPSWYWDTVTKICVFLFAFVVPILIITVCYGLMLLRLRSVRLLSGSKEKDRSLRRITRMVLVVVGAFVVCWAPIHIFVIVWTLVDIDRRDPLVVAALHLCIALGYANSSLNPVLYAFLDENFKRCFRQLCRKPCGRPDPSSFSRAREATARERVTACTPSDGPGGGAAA
compound,measurement,setting,value
O=C(OCC(=O)c1cccs1)c1ccc([N+](=O)[O-])o1,IC50,Exodeoxyribonuclease V,> 119 µM (inactive)
same,IC50,[1],92.6 µM (inactive)
C[C@]12CC[C@H](O)C[C@@H]1CC[C@@H]1[C@@H]2CC[C@]2(C)[C@@H](OC(=O)[C@H](N)CCCCN)CC[C@@H]12,IC50,Bcl-2-related protein A1,> 20 µM (inactive)
same,IC50,[2],11.8 µM (active)
same,AC50,[3],1.27 µM (active)
Cc1ccc2nc(-c3ccc(-c4cccc(Cl)c4)cc3)c(NCc3ccccc3)n2c1,AC50,[4],4.96 µM (active)
same,AC50,[5],24 µM (active)
same,AC50,INS1,2.29 µM (active)
same,IC50,[6],0.848 µM (active)
O=C(O)CN1C(=O)CC(Cc2ccc(Cl)cc2)C1=O (configuration not stated),AC50,Escherichia coli [7],106 µM (active)
Cc1cc(C(=O)NNC(=S)NC(=O)/C=C/c2ccccc2Cl)[nH]n1,IC50,Bcl-2-related protein A1,> 20 µM (inactive)
same,IC50,[8],6.96 µM (active)
same,IC50,[2],5.24 µM (active)
same,IC50,[9],> 122 µM (inactive)
O=C(Cn1cnc([N+](=O)[O-])n1)N/N=C/c1ccc(O)cc1O,AC50,[4],19.3 µM (active)
same,IC50,Nonstructural protein 1,10.9 µM (active)
same,AC50,[5],20.8 µM (active)
same,IC50,[10],107 µM (active)
same,AC50,[11],102 µM (active)
CCCCCOc1ccc(CSC(=N)N)cc1[N+](=O)[O-],EC50,[12],25 µM (active)
same,EC50,[13],27 µM (active)
same,IC50,Exodeoxyribonuclease V,> 39.5 µM (inactive)
same,IC50,[1],83.6 µM (inactive)
same,IC50,Vero [14],21.2 µM (active)
same,CC50,Vero [15],> 25 µM (active)
same,IC50,[9],> 122 µM (inactive)
Fc1ccc(CSc2nnc(-c3ccccn3)n2Cc2ccco2)c(C(F)(F)F)c1,EC50,[16],5.39 µM (active)
same,EC50,Mu-type opioid receptor,> 32 µM (inactive)
same,EC50,[17],> 64 µM (inactive)
same,EC50,[18],8.27 µM (active)
Cn1c(=O)cc(SCC(=O)N2CCCC2)c2ccc(Cl)cc21,EC50,[19],> 79.4 µM (inactive)
same,EC50,[20],> 79.4 µM (not active)
same,EC50,[21],> 79.4 µM (not active)
C[C@H](NS(=O)(=O)c1ccc(Cl)c(Cl)c1)C(=O)OCc1cc(=O)n2cc(Br)ccc2n1,AC50,Escherichia coli [22],67.4 µM (active)
COc1ccc(C(C#N)(CCC#N)CCC#N)cc1OC,IC50,[23],> 79.4 µM (inactive)
same,IC50,[24],> 79.4 µM (inactive)
same,IC50,[25],> 79.4 µM (inactive)
same,IC50,[26],> 109 µM (inactive)
same,IC50,[27],> 83.3 µM (inactive)
CCOC1(C)OCC(=O)[C@]2(CCC3C4CCC5=CC(=O)C=CC5(C)C4C(=O)CC32C)O1 (some centres not stated),IC50,[23],> 79.4 µM (inactive)
same,IC50,[24],> 79.4 µM (inactive)
same,IC50,[25],> 79.4 µM (inactive)
